According to patent EP0109354B1, “Biocidally active mixture” (priority 1982, dated 1984):
Like-named read-outs stand apart in the source and are kept apart here.

Experiments:
[1] = system: Schleimbildung und Algenbewuchs; assay: Efficacy in outdoor cooling circuits, visual assessment of growth on the plates; conditions: phosphonium compound alone, same concentration and frequency (21 ppm twice a week); stated conditionally ('würde')
Description: Untersuchung der Wirksamkeit in Kühlkreisläufen
Die im Freien stehenden (natürliche Sonneneinstrahlung, Staubeinfall, Witterungseinflüsse) Kühlkreisläufe bestanden aus: • a) einem Kunststoffass mit einem Volumen von 113 I und einem Überlauf • b) einer Pumpe (21 1/min bei 3 m Förderhöhe) • c) einem Kühlturm mit Oregon-(Splint), Oregon-(Kernholz), Eiche-, Fichte-, Asbestzement- und PVC-Platte
Die Frischwasser-Zufuhr war so eingestellt, dass der Spritz- und Verdunstungsverlust ausgeglichen wurde und die Biocide in 24 h ungefähr 1:2 verdünnt wurden.
Die Kühlkreisläufe sind durch den natürlichen Staubeinfall und nicht durch gezielte Beimpfung infiziert.
Zur Verhinderung der Schleimbildung und des Algenwuchses wurde der Kühlkreislauf mit 21 ppm 2mal/Woche einer Lösung von 45% der Verbindung 17 und 5% der Verbindung 13 in Wasser behandelt.
Ausgewertet wurde der Versuch durch visuelle Beobachtung des Bewuchses auf den Platten.
Der unbehandelte Kreislauf zeigte schon nach 4 Wochen den ersten Algenbewuchs, die Hölzer waren nach 5 Monaten verschleimt und mit einer dicken Algenschicht überzogen. Der mit 21 ppm 2mal/Woche behandelte Kreislauf zeigte keinerlei Anzeichen von beginnender Schleimbildung und Algenbewuchs.

CCCCCCCCCCCC[P+](CCCC)(CCCC)CCCC.[Cl-] [Verbindung 16, Tri-n-butyl-n-dodecyl-phosphoniumchlorid]
P-Verbindung (Mol-%) Endkonzentration (Bsp. 6: as Beispiel 1, P compound 16 with Sn compound 2): 17,9 Mol-%

CCCCCCCCCCCCCC[P+](CCCC)(CCCC)CCCC.[Cl-] [Verbindung 17, Tri-n-butyl-tetradecyl-phosphoniumchlorid]
Unterdrückung des Algenbewuchses [1]: nicht gänzlich unterdrücken | Endkonzentration der P-Verbindung (Beispiel 2: with 3,8 Mol-% of Vrb. 3 dissolved): 15.3 Mol-% | Endkonzentration der P-Verbindung (Beispiel 3: with 2,9 Mol-% of Vrb. 2 dissolved): 16,7 Mol-% | P-Verbindung (Mol-%) Endkonzentration (Bsp. 4: as Beispiel 1, P compound 17 with Sn compound 8): 13,1 Mol-%

CCCCCCCCCC[P+](CCCC)(CCCC)CCCC.[Cl-] [Verbindung 18, Tri-n-butyl-n-decyl-phosphoniumchlorid]
P-Verbindung (Mol-%) Endkonzentration (Bsp. 5: as Beispiel 1, P compound 18 with Sn compound 2): 19,2 Mol-%

CCCCCCCCCCCCCC[P+](CCCC)(CCCC)CCCC.[Br-] [Verbindung 19, Tri-n-butyl-n-tetradecylphosphoniumbromid]
P-Verbindung (Mol-%) Endkonzentration (Bsp. 7: as Beispiel 1, P compound 19 with Sn compound 2): 15,9 Mol-%

Tri-n-butylzinnaphtenat [Verbindung 8]
Sn-Verbindung (Mol-%) Endkonzentration (Bsp. 4: as Beispiel 1, Sn compound 8 in solution of P compound 17): 7,1 Mol-%
